Key:
human orexin-1 receptor = human orexin-1 receptor (Homo sapiens (Human), UniProt O43613); assay: In vitro assay: intracellular calcium measurements (FLIPR), antagonistic activity; assay type: cell-based; conditions: CHO cells expressing human orexin-1 receptor, orexin-A agonist, geometric mean, read-out: IC50 Ox1
Method in brief: (§1)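 Orexin-A-evoked calcium rise (3 nM final, roughly EC70) was recorded with fluo-4 in recombinant CHO cells, human receptor subtype 1 or 2.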

human orexin-2 receptor = human orexin-2 receptor (Homo sapiens (Human), UniProt O43614); assay: as above; assay type: cell-based; conditions: CHO cells expressing human orexin-2 receptor, orexin-A agonist, geometric mean, read-out: IC50 Ox2
Sequence of human orexin-2 receptor (O43614 whole entry): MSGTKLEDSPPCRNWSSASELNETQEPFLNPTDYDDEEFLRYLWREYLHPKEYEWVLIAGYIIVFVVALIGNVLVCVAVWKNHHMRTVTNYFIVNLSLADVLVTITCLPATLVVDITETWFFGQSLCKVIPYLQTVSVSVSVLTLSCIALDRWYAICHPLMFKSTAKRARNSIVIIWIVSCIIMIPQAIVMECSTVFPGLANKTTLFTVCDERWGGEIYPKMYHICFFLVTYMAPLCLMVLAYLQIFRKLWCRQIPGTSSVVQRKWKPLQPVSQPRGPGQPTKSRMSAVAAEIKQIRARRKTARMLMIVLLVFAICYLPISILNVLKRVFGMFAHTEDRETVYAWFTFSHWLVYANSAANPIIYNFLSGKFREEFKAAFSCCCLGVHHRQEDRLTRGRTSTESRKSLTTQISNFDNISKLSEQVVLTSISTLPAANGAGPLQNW
Method in brief: as §1

Sequence of human orexin-1 receptor (O43613 whole entry): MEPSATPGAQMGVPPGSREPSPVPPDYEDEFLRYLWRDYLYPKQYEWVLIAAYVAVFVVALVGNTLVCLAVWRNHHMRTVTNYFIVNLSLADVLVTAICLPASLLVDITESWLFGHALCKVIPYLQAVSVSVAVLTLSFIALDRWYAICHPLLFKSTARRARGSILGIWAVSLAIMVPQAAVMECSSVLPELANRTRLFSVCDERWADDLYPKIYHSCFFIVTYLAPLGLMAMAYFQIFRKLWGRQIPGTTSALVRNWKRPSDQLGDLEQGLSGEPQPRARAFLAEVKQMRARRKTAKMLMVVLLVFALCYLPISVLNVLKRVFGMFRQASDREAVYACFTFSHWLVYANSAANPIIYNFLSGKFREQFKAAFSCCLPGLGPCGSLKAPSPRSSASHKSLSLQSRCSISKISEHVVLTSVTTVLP

| IC50 (human orexin-1 receptor) [µM] | IC50 (human orexin-2 receptor) [µM] | Compound |
| --- | --- | --- |
| 0.015 | 0.003 | C=C1C[C@@H](c2nc3cc(OC)ccc3[nH]2)N(C(=O)c2nc(C)sc2-c2cccc(C)c2)C1 [Ex. 6.7] |
| 0.02 | 0.521 | Cc1c(Cl)ccc2[nH]c([C@]3(C)CCCN3C(=O)c3nc(-c4ccc(F)cc4)sc3-c3ccc(F)cc3)nc12 [Ex. 5.227] |
| 0.04 | 4.59 | Cc1ccccc1-c1nc(C(=O)N2CCC[C@@]2(C)c2nc3cc(Cl)c(C(F)(F)F)cc3[nH]2)c(-c2ccc(F)cc2)s1 [Ex. 5.286] |
| 0.814 | 0.103 | C=C1C[C@@H](c2nc3cc(OC)ccc3[nH]2)N(C(=O)c2ncsc2-c2cccc(Cl)c2)C1 [Ex. 6.32] |
| 0.002 | 0.004 | Cc1ccc(-c2ncccn2)c(C(=O)N2CCC[C@@]2(C)c2nc3c(C)c(Cl)ccc3[nH]2)c1 [Ex. 5.214] |
| 0.015 | 0.052 | CCn1c([C@]2(C)CCCN2C(=O)c2ccc(C)cc2-n2nccn2)nc2cc(C)c(C)cc21 [Ex. 7.12] |
| 0.003 | 0.012 | Cc1ccc(-c2ccccc2)c(C(=O)N2CCC[C@@]2(C)c2nc3c(C)c(Cl)ccc3[nH]2)c1 [Ex. 5.223] |
| 0.034 | 0.671 | COc1cccc(-c2nc(C(=O)N3CCC[C@@]3(C)c3nc4cc(Cl)c(C(F)(F)F)cc4[nH]3)c(-c3ccc(F)cc3)s2)c1 [Ex. 5.292] |
| 0.015 | 0.022 | Cc1c(Br)cc2[nH]c([C@]3(C)CCCN3C(=O)c3ccccc3-c3ccccc3)nc2c1C [Ex. 5.269] |
| 0.015 | 0.045 | Cc1ccc(-c2cccnc2)c(C(=O)N2CCC[C@@]2(C)c2nc3ccc(Cl)c(C)c3[nH]2)c1 [Ex. 5.216] |
| 0.002 | 0.004 | CCn1c([C@]2(C)CCCN2C(=O)c2nc(C)sc2-c2ccccc2)nc2c(C)c(Cl)ccc21 [Ex. 7.8] |
| 0.017 | 0.027 | Cc1ccc(-c2ccc(C)cc2C(=O)N2CCC[C@@]2(C)c2nc3cc(C)c(C)cc3[nH]2)cc1 [Ex. 5.100] |
| 0.398 | 0.066 | C=C1C[C@@H](c2nc3cc(OC)ccc3[nH]2)N(C(=O)c2nc(C)sc2-c2ccccc2Cl)C1 [Ex. 6.34] |

Further lines, the compound ahead of its results:

| Compound | IC50 (human orexin-1 receptor) [µM] | IC50 (human orexin-2 receptor) [µM] |
| --- | --- | --- |
| Cc1ccc(-n2nccn2)c(C(=O)N2CC[C@H](C)[C@H]2c2nc3c(C)c(C)ccc3[nH]2)c1 [Ex. 4.37] | 0.024 | 0.988 |
| Cc1nc(C(=O)N2CCC[C@H]2c2nc3cc(Cl)ccc3[nH]2)c(-c2cccc(Cl)c2)s1 [Ex. 1.10] | 0.098 | 0.248 |
| Cc1ccc(-c2ccccc2C(=O)N2CC[C@H](C)[C@H]2c2nc3c(C)cc(Cl)cc3[nH]2)cc1 [Ex. 4.92] | 0.005 | 0.212 |
| Cc1cc(C(=O)N2CCC[C@@]2(C)c2nc3c(C)c(Cl)ccc3[nH]2)c(-n2nccn2)cn1 [Ex. 5.263] | 0.056 | 0.304 |
| COc1ccc(-n2nccn2)c(C(=O)N2CC[C@H](C)[C@H]2c2nc3cc(Cl)c(C)cc3[nH]2)c1 [Ex. 4.74] | 0.004 | 0.078 |
| Cc1nc(C(=O)N2C[C@H](F)C[C@H]2c2nc3c(C)c(Cl)ccc3[nH]2)c(-c2cccc(Cl)c2)s1 [Ex. 2.10] | 0.005 | 0.008 |
| (S)-(2-(6-methoxy-1H-benzo[d]imidazol-2-yl)pyrrolidin-1-yl)(5-methyl-2-(2H-1,2,3-triazol-2-yl)phenyl)methanone [Example 1.1] | 1.5 | 0.108 |
| Cc1nc(C(=O)N2CC[C@H](C)[C@H]2c2nc3c(Cl)cccc3[nH]2)c(-c2ccc(F)c(F)c2)s1 [Ex. 4.126] | 0.043 | 2.38 |
| Cc1ccc(-c2ncccn2)c(C(=O)N2CC[C@H](C)[C@H]2c2nc3ccc(Cl)c(C)c3[nH]2)c1 [Ex. 4.181] | 0.003 | 0.23 |
| COc1ccc(-n2nccn2)c(C(=O)N2CC[C@H](C)[C@H]2c2nc3c(C)cc(Cl)cc3[nH]2)c1 [Ex. 4.97] | 0.004 | 0.129 |
| CSc1ccc2nc([C@@H]3CCCN3C(=O)c3ccccc3-c3ccc(C)c(C)c3)[nH]c2c1 [Ex. 1.46] | 0.128 | 0.013 |

— patent US9732075B2, “Benzimidazole-proline derivatives” (IDORSIA PHARMACEUTICALS LTD, priority 2012, dated 2017)
